# Measured values published in patent US20260125372A1, “DYNAMIN-1-LIKE PROTEIN INHIBITORS AND USES THEREOF” (Astellas Engineered Small Molecules US, Incorporated, priority 2022, published 2026).
# Target: T1, DRP1 (Homo sapiens, UniProt O00429)
# T1 construct: Human DRIP1 (UniProtID: O00429.4, residues 1-699); made in house; host or cells: Escherichia coli BL21 CodonPlus DE3
# Assay: AlphaLISA assay (His-DRP1 / MiD49-GST interaction)
# Type: binding
# Conditions: His-DRP1 200 nM, MiD49-GST 20 nM, GMP-PNP 100 uM
# Experimental: Human DRIP1 (UniProtID: O00429.4, residues 1-699), and human MiD49 (UnitProtIS: Q96C03.1, residues 126-454) was cloned into a pET15b vector as an N-terminal His-tag Fusion. All constructs were transformed in Escherichia coli host strain BL21 CodonPlus DE3. Bacteria was grown in LB media with 100 μg/ml ampicillin and 34 μg/ml chloramphenicol in an orbital shaker at 37° C. until OD600 reached 0.4, at which temperature was reduced to 16° C. Recombinant protein expression was expressed for 18 hr by the addition of IPTG at OD600 of about 0.8. All cultures were spun down and bacterial pellets were used for protein purification.
# For His-DRP1, the pellets were resuspended in DRP-buffer A (20 mM Tris, 500 KCl, 1.89 β-ME, pH 8.0) and protease inhibitor cocktail (Roche), followed by cell disruption by sonication (400 W, pulse 3 sec on, 3 sec off, total 20 min). The lysate was centrifuged at 20,000 g and then supernatant applied to a preequilibrated Ni-NTA column with DRP-buffer A. The column was extensively washed with buffer A containing 50 mM imidazole. Purified His-DRP1 was eluted with DRP-buffer A containing 250 mM imidazole and dialyzed overnight at 4° C. (18 kDa cutoff) against DRP-buffer A to remove imidazole. For AlphaLISA, the His tag was retained on DRP1 full-length.
# For MiD49-GST, the bacterial pellets were resuspended and sonicated in MID lysis buffer (25 mM Tris-HCl, pH 7.5, 500 mM NaCl, 5% glycerol, 1 mM TCEP, and 0.5% CHAPS). The lysate was pre-cleared at 20,300 g before applying to a glutathione column. Unbound proteins were washed using MID-buffer A (25 mM Tris-HCl, pH 7.5, 300 mM NaCl, 5% glycerol, 1 mM TCEP) and MID-buffer B (25 mM Tris-HCl, pH 7.5, 300 mM NaCl, 5% glycerol, 1 mM TCEP, 1 mM GSH). The protein was eluted with MID-buffer C (25 mM Tris-HCl, pH 7.5, 300 mM NaCl, 5% glycerol, 1 mM TCEP, 10 mM GSH). The target protein was concentrated in the ultra-filtration tube with MW cutoff 30 kDa and further purified by size-exclusion chromatography on a Superdex-200 column (GE Healthcare) in buffer A. Fractions containing MiD49-GST (126-454) were pooled, concentrated, flash-frozen as single-use aliquots in liquid nitrogen and stored at −80° C.
# A total of 100 nl of compounds were plated in a 384-well AlphaPlate (PerkinElmer, Waltham, MA) at concentrations 100 uM to […] in DMSO (dilution by 3.165 for 11 concentration levels). Recombinant His-DRP1 (200 nM), MiD49-GST (20 nM), and GMP-PNP (100 uM) were mixed in assay buffer (PBS with 1.5% BSA, 1 mM DTT). Five microliters of the protein mixture were added to the plate and incubate at room temperature for 30 min. Glutathione donor beads and nickel chelate acceptor beads were diluted and mixed in assay buffer to obtain 40 μg/ml of each bead. Five microliters of the mixed beads were added to each well on the microplate leading to a final bead concentration of 20 µg/ml per well. The sealed plate was incubated at room temperature for 60 min and protected from light. The AlphaLISA signal was detected with an EnVision Multilabel Reader (excitation at 680 and emission 615 nm). GraphPad Prism was used to calculate the IC50 by applying sigmoidal dose-response fit (variable slope).
# T1 sequence (O00429 1-699 isoform O00429-4): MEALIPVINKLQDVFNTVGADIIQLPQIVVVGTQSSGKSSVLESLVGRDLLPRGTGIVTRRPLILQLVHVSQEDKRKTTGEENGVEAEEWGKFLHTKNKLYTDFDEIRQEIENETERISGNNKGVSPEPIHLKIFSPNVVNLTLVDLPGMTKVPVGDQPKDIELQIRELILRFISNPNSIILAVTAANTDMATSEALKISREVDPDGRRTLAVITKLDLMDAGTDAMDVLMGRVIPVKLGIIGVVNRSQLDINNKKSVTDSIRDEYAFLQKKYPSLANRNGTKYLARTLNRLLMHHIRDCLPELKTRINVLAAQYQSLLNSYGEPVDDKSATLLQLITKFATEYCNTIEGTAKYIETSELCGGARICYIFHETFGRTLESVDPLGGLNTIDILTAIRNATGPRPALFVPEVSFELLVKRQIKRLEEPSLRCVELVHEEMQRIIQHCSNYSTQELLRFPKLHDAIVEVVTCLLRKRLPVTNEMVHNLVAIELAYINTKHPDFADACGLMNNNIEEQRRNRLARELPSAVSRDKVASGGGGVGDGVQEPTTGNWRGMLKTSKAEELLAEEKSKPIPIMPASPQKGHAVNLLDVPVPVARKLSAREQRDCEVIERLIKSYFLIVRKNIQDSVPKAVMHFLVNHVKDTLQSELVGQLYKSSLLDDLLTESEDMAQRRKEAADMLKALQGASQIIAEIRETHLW
row,SMILES,IC50 [µM]
1,"O=C(Nc1ccc2nc(-n3ccnc3)cc(OCCO)c2c1)C1COC1 [Example 42, N-(4-(2-hydroxyethoxy)-2-(1H-imidazol-1-yl)quinolin-6-yl)oxetane-3-carboxamide]",1 to 10
2,"CCCOC(C)C(=O)Nc1ccc2nc(-c3cncs3)cc(OCCOC)c2c1 (centres unmarked) [Example 25, N-(4-(2-methoxyethoxy)-2-(thiazol-5-yl)quinolin-6-yl)-2-propoxypropanamide]",< 0.5
3,"COCC(C)Oc1cc(-c2cncs2)nc2ccc(NC(=O)C3COC3)cc12 (centres unmarked) [Example 38, N-(4-((1-methoxypropan-2-yl)oxy)-2-(thiazol-5-yl)quinolin-6-yl)oxetane-3-carboxamide]",< 0.5
4,"CCOC(C)C(=O)Nc1ccc2nc(-c3cncs3)cc(OCCOC)c2c1 (centres unmarked) [Example 26, 2-ethoxy-N-(4-(2-methoxyethoxy)-2-(thiazol-5-yl)quinolin-6-yl)propanamide]",< 0.5
5,"CCOc1cc(-n2cnc(C(C)(C)C)c2)nc2ccc(NC(=O)C3COC3)cc12 [Example 47, N-(2-(4-(tert-butyl)-1H-imidazol-1-yl)-4-ethoxyquinolin-6-yl)oxetane-3-carboxamide]",> 10
6,"COCCOc1cc(-c2cnn(C)c2)nc2ccc(NC(=O)C3COC3)cc12 [Example 53, N-(4-(2-methoxyethoxy)-2-(1-methyl-1H-pyrazol-4-yl)quinolin-6-yl)oxetane-3-carboxamide]",0.5 to 1
7,"COCC(C)(C)Oc1cc(-c2cncs2)nc2ccc(NC(=O)C3COC3)cc12 [Example 39, N-(4-((1-methoxy-2-methylpropan-2-yl)oxy)-2-(thiazol-5-yl)quinolin-6-yl)oxetane-3-carboxamide]",1 to 10
8,"COC[C@@H](C)Oc1cc(-c2cncs2)nc2ccc(NC(=O)C(C)C#N)cc12 (stereo partly drawn) [Example 49, 2-cyano-N-(4-(((R)-1-methoxypropan-2-yl)oxy)-2-(thiazol-5-yl)quinolin-6-yl)propanamide]",1 to 10
9,"COCCOc1cc(-c2cncs2)nc2ccc(NC(=O)C3CC3C(F)(F)F)cc12 (centres unmarked) [Example 20, N-(4-(2-methoxyethoxy)-2-(thiazol-5-yl)quinolin-6-yl)-2-(trifluoromethyl)cyclopropane-1-carboxamide]",1 to 10
10,"COCCOc1cc(-c2cncs2)nc2ccc(NC(=O)COC)cc12 [Example 21, 2-methoxy-N-(4-(2-methoxyethoxy)-2-(thiazol-5-yl)quinolin-6-yl)acetamide]",1 to 10

# The next lines start with the values.
row,IC50 [µM],SMILES
1,1 to 10,"CCOc1cc(-n2cnnc2)nc2ccc(NC(=O)C3COC3)cc12 [Example 45, N-(4-ethoxy-2-(4H-1,2,4-triazol-4-yl)quinolin-6-yl)oxetane-3-carboxamide]"
2,1 to 10,"COCCOc1cc(-c2cncs2)nc2ccc(NC(=O)C3CC(F)(F)C3)cc12 [Example 30, 3,3-difluoro-N-(4-(2-methoxyethoxy)-2-(thiazol-5-yl)quinolin-6-yl)cyclobutane-1-carboxamide]"
3,< 0.5,"CCOc1cc(-c2cnc(C)s2)nc2ccc(NC(=O)C3COC3)cc12 [Example 6, N-(4-ethoxy-2-(2-methylthiazol-5-yl)quinolin-6-yl) oxetane-3-carboxamide]"
4,> 10,"COCCOc1cc(-c2cncs2)nc2ccc(NC(=O)C3(OC)CC3)cc12 [Example 29, 1-methoxy-N-(4-(2-methoxyethoxy)-2-(thiazol-5-yl)quinolin-6-yl)cyclopropane-1-carboxamide]"
5,< 0.5,"O=C(Nc1ccc2nc(-c3cncs3)cc(OCCO)c2c1)C1COC1 [Example 9, N-(4-(2-hydroxyethoxy)-2-(thiazol-5-yl)quinolin-6-yl) oxetane-3-carboxamide]"
6,1 to 10,"CCOc1cc(-n2cnc(C#N)c2)nc2ccc(NC(=O)C3COC3)cc12 [Example 46, N-(2-(4-cyano-1H-imidazol-1-yl)-4-ethoxyquinolin-6-yl)oxetane-3-carboxamide]"
7,< 0.5,"CCOc1cc(-n2cnc(C)c2)nc2ccc(NC(=O)C3COC3)cc12 [Example 2, N-(4-ethoxy-2-(4-methyl-1H-imidazol-1-yl)quinolin-6-yl)oxetane-3-carboxamide]"
8,< 0.5,"COCCOc1cc(-c2cncs2)nc2ccc(NC(=O)C(C)OC)cc12 (centres unmarked) [Example 22, 2-methoxy-N-(4-(2-methoxyethoxy)-2-(thiazol-5-yl)quinolin-6-yl)propanamide]"
9,< 0.5,"COCCOc1cc(-c2cncs2)nc2ccc(NC(=O)C(C)C#N)cc12 (centres unmarked) [Example 28, 2-cyano-N-(4-(2-methoxyethoxy)-2-(thiazol-5-yl)quinolin-6-yl)propanamide]"
10,< 0.5,"COCCOc1cc(-c2cncs2)nc2ccc(NC(=O)[C@H]3C[C@@H](OC)C3)cc12 [Example 33, cis-3-methoxy-N-(4-(2-methoxyethoxy)-2-(thiazol-5-yl)quinolin-6-yl)cyclobutane-1-carboxamide]"
11,0.5 to 1,"COCCOc1cc(-c2cncs2)nc2ccc(NC(=O)c3cnoc3)cc12 [Example 35, N-(4-(2-methoxyethoxy)-2-(thiazol-5-yl)quinolin-6-yl)isoxazole-4-carboxamide]"
12,0.5 to 1,"COCCOc1cc(-c2cncs2)nc2ccc(NC(=O)CCOC)cc12 [Example 24, 3-methoxy-N-(4-(2-methoxyethoxy)-2-(thiazol-5-yl)quinolin-6-yl)propanamide]"
13,< 0.5,"COCCOc1cc(-c2cncs2)nc2ccc(NC(=O)[C@H]3C[C@H](O)C3)cc12 [Example 17, trans-3-hydroxy-N-(4-(2-methoxyethoxy)-2-(thiazol-5-yl)quinolin-6-yl)cyclobutane-1-carboxamide]"
